“And” between values parts separate entries of the source, which are not always exact repeats. Equal values may be shown once.
Experiment: Dog PK study #3 (Compound A PO once daily 5 days, 5/10/20 mg/kg; PK, body weight, hematology)
Type: in vivo, beagle dogs
Design: Plasma Concentration: unit not given here
Experimental: For the third dog pharmacokinetic study, three solutions of different concentrations of Compound A were prepared in 5% DMSO/15% PEG-400/80% (10% VE-TPGS) as outlined in Table 2E. The Compound A solutions were administered to animals orally (PO) once daily over a five-day period. Body weight was recorded prior to dosing, and detailed clinical observations were made prior to dosing and throughout the study, as needed.
Animals were divided into Day 1 and Day 5 sample collection groups, with animals in the Day 1 collection group having blood samples taken prior to dosing and at 0.25, 0.5, 1, 2, 4, 8, and 24 hours after dosing on day 1. Animals in the Day 5 collection group having blood samples taken prior to dosing and at 0.25, 0.5, 1, 2, 4, 8, and 24 hours after dosing on day 5. Study groups are outlined in Table 3D.
Blood samples (~0.3 mL) were collected on day according to the following schedule (0.25, 0.5, 1, 2, 4, 8, and 24 h) after day 5 administration of Compound A by venipuncture of peripheral veins except for the dosing vein, and EDTA-K2 was used as anticoagulant. Within 30 minutes of collection, the samples were centrifuged at approximately 2000 times g-force for 10 minutes at 4° C. to obtain blood plasma. The plasma samples were immediately divided into two aliquots (~75 μL each), transferred to a cryogenic vial, and stored in a freezer at −75±15° C. prior to analysis.
The concentration of Compound A in the blood plasma was determined through LC-MS as previously described. Briefly, the experiments were conducted on a DMPK-LCMS-14-SMBA Triple Quad 6500 Plus instrument with an ACQUITY UPLC BEH C18 1.7 μm (50×2.1 mm) column. The matrix was male beagle dog plasma potassium (K2) EDTA A gradient of 95% water (0.1% formic acid and 2 mM HCOONH4)/95% acetonitrile (0.1% formic acid and 2 mM HCOONH4) was used as the mobile phase. The sample flow rate was 0.6 mL/min.
The samples were then vortex-mixed for 10 minutes at 800 rpm and centrifuged for 15 minutes at 3220×g at 4° C. 50 μL aliquots of supernatant were transferred to a clean 96-well plate and centrifuged for 5 minutes at 3220×g at 4° C. Samples were then injected into the LC/MS/MS system for quantitative analysis.
The gathered data were used for pharmacokinetic calculations using T1/2, CO, AUClast, AUCinf, MRTinf, Cl, Vss, and Number of Points for Regression as parameters.
The cell composition (hematology) of blood samples was analyzed at day 5. Analyses identified the total number of white blood cells, neutrophils, lymphocytes, monocytes, eosinophils, basophils, and platelets in collected samples.

[1] = Day 1, 5 mg/kg dose PO, individual animals
[2] = Day 1, 10 mg/kg dose PO, individual animals
[3] = Day 1, 20 mg/kg dose PO, individual animals

Compound: Cn1cc(-c2ccccc2)c(-c2cn(C)c(=O)c3[nH]c(-c4cnn(C(F)(F)F)c4)cc23)cc1=O [Compound A, 6-methyl-4-(1-methyl-2-oxo-5-phenyl-1,2-dihydropyridin-4-yl)-2-(1-(trifluoromethyl)-1H-pyrazol-4-yl)-1,6-dihydro-7H-pyrrolo[2,3-c]pyridin-7-one]
- Plasma Concentration (Day 1, 5 mg/kg dose PO, time 0, individual animals): BQL
- Plasma Concentration (Day 1, 5 mg/kg dose PO, time 0.25, individual animals): 9.79 and 28.1
- Plasma Concentration (Day 1, 5 mg/kg dose PO, time 0.25, mean): 18.9
- Plasma Concentration (Day 1, 5 mg/kg dose PO, time 0.5, individual animals): 206 and 326
- Plasma Concentration (Day 1, 5 mg/kg dose PO, time 0.5, mean): 266
- Plasma Concentration (Day 1, 5 mg/kg dose PO, time 1, individual animals): 523 and 590
- Plasma Concentration (Day 1, 5 mg/kg dose PO, time 1, mean): 557
- Plasma Concentration (Day 1, 5 mg/kg dose PO, time 2, individual animals): 587 and 671
- Plasma Concentration (Day 1, 5 mg/kg dose PO, time 2, mean): 629
- Plasma Concentration (Day 1, 5 mg/kg dose PO, time 4, individual animals): 765 and 686
- Plasma Concentration (Day 1, 5 mg/kg dose PO, time 4, mean): 726
- Plasma Concentration (Day 1, 5 mg/kg dose PO, time 8, individual animals): 785 and 424
- Plasma Concentration (Day 1, 5 mg/kg dose PO, time 8, mean): 605
- Plasma Concentration (Day 1, 5 mg/kg dose PO, time 24, individual animals): 166 and 58.7
- Plasma Concentration (Day 1, 5 mg/kg dose PO, time 24, mean): 112
- AUC0-last [1]: 7398 ng·h/mL
- AUCExtra [1]: 6.05%
- AUMCExtra [1]: 20.9%
- Cl_F [1]: 10.6 mL/min/kg
- Cmax [1]: 686 ng/mL
- MRT0-last [1]: 7.83 h
- Tlast [1]: 24.0 h
- Vz_F [1]: 5.16 L/kg
- AUC0-last (Day 1, 5 mg/kg dose PO, mean): 9495 ng·h/mL
- Tlast (Day 1, 5 mg/kg dose PO, mean): 24.0 h
- Plasma Concentration (Day 1, 10 mg/kg dose PO, time 0, individual animals): BQL
- Plasma Concentration (Day 1, 10 mg/kg dose PO, time 0.25, individual animals): 310 and 258
- Plasma Concentration (Day 1, 10 mg/kg dose PO, time 0.25, mean): 284
- Plasma Concentration (Day 1, 10 mg/kg dose PO, time 0.5, individual animals): 948 and 954
- Plasma Concentration (Day 1, 10 mg/kg dose PO, time 0.5, mean): 951
- Plasma Concentration (Day 1, 10 mg/kg dose PO, time 1, individual animals): 1330 and 1260
- Plasma Concentration (Day 1, 10 mg/kg dose PO, time 1, mean): 1295
- Plasma Concentration (Day 1, 10 mg/kg dose PO, time 2, individual animals): 1820 and 1450
- Plasma Concentration (Day 1, 10 mg/kg dose PO, time 2, mean): 1635
- Plasma Concentration (Day 1, 10 mg/kg dose PO, time 4, individual animals): 2010 and 1380
- Plasma Concentration (Day 1, 10 mg/kg dose PO, time 4, mean): 1695
- Plasma Concentration (Day 1, 10 mg/kg dose PO, time 8, individual animals): 1080 and 860
- Plasma Concentration (Day 1, 10 mg/kg dose PO, time 8, mean): 970
- Plasma Concentration (Day 1, 10 mg/kg dose PO, time 24, individual animals): 138 and 134
- Plasma Concentration (Day 1, 10 mg/kg dose PO, time 24, mean): 136
- AUC0-last [2]: 15568 ng·h/mL
- AUC(0-inf) [2]: 16719 ng·h/mL
- AUCExtra [2]: 5.08% and 6.88%
- AUMCExtra [2]: 18.2% and 23.5%
- Cl_F [2]: 8.12 mL/min/kg and 9.97 mL/min/kg
- Cmax [2]: 1450 ng/mL
- MRT0-inf [2]: 9.54 h
- MRT0-last [2]: 7.84 h
- Tlast [2]: 24.0 h
- T½ [2]: 5.95 h
- Vz_F [2]: 3.68 L/kg and 5.14 L/kg
- AUC0-last (Day 1, 10 mg/kg dose PO, mean): 17527 ng·h/mL
- AUCExtra (Day 1, 10 mg/kg dose PO, mean): 5.98%
- AUMCExtra (Day 1, 10 mg/kg dose PO, mean): 20.9%
- Cl_F (Day 1, 10 mg/kg dose PO, mean): 9.04 mL/min/kg
- Tlast (Day 1, 10 mg/kg dose PO, mean): 24.0 h
- Vz_F (Day 1, 10 mg/kg dose PO, mean): 4.41 L/kg
- Plasma Concentration (Day 1, 20 mg/kg dose PO, time 0, individual animals): BQL
- Plasma Concentration (Day 1, 20 mg/kg dose PO, time 0.25, individual animals): 413 and 438
- Plasma Concentration (Day 1, 20 mg/kg dose PO, time 0.25, mean): 426
- Plasma Concentration (Day 1, 20 mg/kg dose PO, time 0.5, individual animals): 2090 and 1440
- Plasma Concentration (Day 1, 20 mg/kg dose PO, time 0.5, mean): 1765
- Plasma Concentration (Day 1, 20 mg/kg dose PO, time 1, individual animals): 3430 and 3440
- Plasma Concentration (Day 1, 20 mg/kg dose PO, time 1, mean): 3435
- Plasma Concentration (Day 1, 20 mg/kg dose PO, time 2, individual animals): 3620 and 5590
- Plasma Concentration (Day 1, 20 mg/kg dose PO, time 2, mean): 4605
- Plasma Concentration (Day 1, 20 mg/kg dose PO, time 4, individual animals): 4330 and 6000
- Plasma Concentration (Day 1, 20 mg/kg dose PO, time 4, mean): 5165
- Plasma Concentration (Day 1, 20 mg/kg dose PO, time 8, individual animals): 3170 and 4570
- Plasma Concentration (Day 1, 20 mg/kg dose PO, time 8, mean): 3870
- Plasma Concentration (Day 1, 20 mg/kg dose PO, time 24, individual animals): 394 and 1810
- Plasma Concentration (Day 1, 20 mg/kg dose PO, time 24, mean): 1102
- AUC0-last [3]: 86304 ng·h/mL
- AUC(0-inf) [3]: 52608 ng·h/mL and 116806 ng·h/mL
- AUCExtra [3]: 6.10% and 26.1%
- AUMCExtra [3]: 20.3% and 58.8%
- Cl_F [3]: 6.34 mL/min/kg and 2.85 mL/min/kg

— US20260217701A1, “SELECTIVE BET INHIBITORS AND USES THEREOF” (Tay Therapeutics Limited, priority 2022, published 2026)
